In patent US8530648B2, “Diaza-spiro[5.5]undecanes” (Novartis AG, priority 2009, dated 2013):

Experiments:
hOx2R [1] = target: T1, hOx2R (Homo sapiens (Human), UniProt O43614); experiment: Radioligand binding assay, [125I]orexin A, hOx2R; conditions: radioligand [125I]orexin A, competition
Protocol: (§1) For crude cell membrane preparations, cells (CHO, Chinese hamster ovary or HEK, human embryonic kidney) expressing human orexin 1 or human orexin 2 receptors, were washed with HEPES (10 mM, pH 7.5), scraped off the culture plates with the same buffer, and centrifuged at 4° C. for 5 min at 2500×g. The cell pellet was either stored at −80° C. or used directly. Before the experiments, cell membranes were re-suspended in binding assay buffer (10 mM HEPES, 0.5% (w/v) bovine serum albumin, pH 7.5) by homogenisation with a Polytron homogeniser at 50 Hz for 20 s. Cell membranes were also used as made available by commercial providers.
(§2) In initial saturation experiments (to calculate Bmax), cell homogenates (150 μl) were incubated with 25-300 pM of the radioligand ([^125I]orexin A, 50 μl), 8 concentrations in triplicates in the presence or absence Orexin A (1 μM, 50 μl) to define non specific binding. Bound radioactivity was measured, and data were analysed with the program XLFIT or Graphpad Prism. Protein concentration was determined according to the Bradford/BioRad Protein Assay Kit.
(§3) In competition experiments, cell homogenates (150 μl) were incubated in assay buffer (10 mM HEPES, pH 7.5, 0.5% (w/v) bovine serum albumin, 5 mM MgCl2, 1 mM CaCl2, and tween 0.05%) for 1 h at room temperature with about 100 pM of the radioligand ([^125I]orexin A, 2100 Ci/mmole, 50 μl), and with various concentrations of compounds of the invention (50 μl) in triplicates; non-specific binding was determined in the presence of Orexin A (1 μM). Reactions were terminated by vacuum filtration, 3 washes of ice cold wash buffer (Tris-HCl pH 7.4/10 mM, with NaCl 154 mM).

hOx1R [2] = target: T2, hOx1R (Homo sapiens (Human), UniProt O43613); experiment: Calcium accumulation in cells (FLIPR), hOx1R; type: cell-based; conditions: for Ki: inhibition of orexin A induced calcium accumulation, Cheng and Prusoff correction; for inhibition at 10 µM: measured at a concentration of 10 μM of compound
T2 sequence (O43613 whole entry): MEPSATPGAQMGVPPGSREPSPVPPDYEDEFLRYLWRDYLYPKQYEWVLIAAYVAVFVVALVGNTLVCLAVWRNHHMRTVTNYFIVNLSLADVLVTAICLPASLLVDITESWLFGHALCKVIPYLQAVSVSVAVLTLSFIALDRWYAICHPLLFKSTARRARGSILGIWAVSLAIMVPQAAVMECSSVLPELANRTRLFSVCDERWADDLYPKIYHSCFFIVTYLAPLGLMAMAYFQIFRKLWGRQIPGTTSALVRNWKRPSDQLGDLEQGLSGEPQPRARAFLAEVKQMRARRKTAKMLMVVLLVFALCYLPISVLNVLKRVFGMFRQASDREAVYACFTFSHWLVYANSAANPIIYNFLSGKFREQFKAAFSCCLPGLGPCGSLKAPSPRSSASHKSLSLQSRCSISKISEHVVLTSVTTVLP
Method in brief: (§4)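 Cells expressing human orexin 1 or 2 receptor, serum-deprived overnight, loaded with Fluo-4-AM (2 μM) plus 0.1 mM probenecid, pH 7.4 HEPES buffer with 1% BSA.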

hOx2R [3] = target: T1, hOx2R; experiment: Calcium accumulation in cells (FLIPR), hOx2R; type: cell-based; conditions: inhibition of orexin A induced calcium accumulation, Cheng and Prusoff correction
Method in brief: as §4

hOx1R [4] = target: T2, hOx1R; experiment: Radioligand binding assay, [125I]orexin A, hOx1R; conditions: radioligand [125I]orexin A, competition
Protocol: as §1, §2, §3

hOx2R [5] = target: T1, hOx2R; experiment: Radioligand binding assay, [3H]-SB649868, hOx2R; conditions: radioligand [3H]-SB649868, competition
Protocol: as §1
(§5) Bound radioactivity was measured, and data were analysed with the program XLFIT or Graphpad Prism. Protein concentration was determined according to the Bradford/BioRad Protein Assay Kit.
(§6) In competition experiments, cell homogenates (150 μl) were incubated in assay buffer (10 mM HEPES, pH 7.5, 0.5% (w/v) bovine serum albumin, 5 mM MgCl2, 1 mM CaCl2, and tween 0.05%) for 1 h at room temperature with about 1 nM of the radioligand [^3H]-SB649868, 66 Ci/mmole, 50 μl), and with various concentrations of compounds of the invention (50 μl) in triplicates; non-specific binding was determined in the presence of almorexant (10 μM).

hOx1R [6] = target: T2, hOx1R; experiment: Radioligand binding assay, [3H]-SB649868, hOx1R; conditions: radioligand [3H]-SB649868, competition
Protocol: as §1, §5, §6

T1 sequence (O43614 whole entry): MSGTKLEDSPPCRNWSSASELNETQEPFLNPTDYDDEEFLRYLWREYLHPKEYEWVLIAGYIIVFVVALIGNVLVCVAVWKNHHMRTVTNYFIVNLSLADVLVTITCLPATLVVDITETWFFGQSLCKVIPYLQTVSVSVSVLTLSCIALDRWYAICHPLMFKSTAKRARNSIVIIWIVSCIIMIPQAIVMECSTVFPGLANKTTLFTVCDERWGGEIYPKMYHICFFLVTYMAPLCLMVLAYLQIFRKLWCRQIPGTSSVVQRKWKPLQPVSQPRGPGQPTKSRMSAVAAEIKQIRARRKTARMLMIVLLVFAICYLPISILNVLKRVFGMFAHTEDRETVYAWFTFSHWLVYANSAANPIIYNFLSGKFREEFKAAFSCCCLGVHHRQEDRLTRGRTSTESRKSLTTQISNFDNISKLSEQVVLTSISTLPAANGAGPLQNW

Row | Kd (hOx2R [1]) | Ki (hOx1R [2]) | Ki (hOx2R [3]) | Kd (hOx1R [4]) | inhibition at 10 µM (hOx1R [2]) | Kd (hOx2R [5]) | Kd (hOx1R [6]) | Structure (SMILES)
1 | 175 nM | 420 nM | 47 nM | 634 nM |  |  |  | O=C1N(Cc2cccc(-c3ccccn3)c2)CCCC12CCN(c1cnc3ccccc3n1)CC2 [Example 54, 2-(3-(pyridin-2-yl)benzyl)-9-(quinoxalin-2-yl)-2,9-diazaspiro[5.5]undecan-1-one]
2 | 159 nM | 1030 nM | 92 nM | 959 nM |  |  |  | O=C1N(Cc2c[nH]c3ncccc23)CCCC12CCN(c1cnc3ccccc3n1)CC2 [Example 57, 2-((1H-pyrrolo[2,3-b]pyridin-3-yl)methyl)-9-(quinoxalin-2-yl)-2,9-diazaspiro[5.5]undecan-1-one]
3 | 211 nM | 948 nM | 112 nM | 1380 nM |  |  |  | O=C1N(Cc2cccc(C(F)(F)F)c2)CCCC12CCN(c1cnc3ccccc3n1)CC2 [Example 14, 9-(quinoxalin-2-yl)-2-(3-(trifluoromethyl)benzyl)-2,9-diazaspiro[5.5]undecan-1-one]
4 | 6100 nM |  |  | > 10000 nM |  |  |  | Cn1c(N2CCC3(CCCN(Cc4cccc5ccccc45)C3=O)CC2)nc2ccccc21 [Example 12, 9-(1-methyl-1H-benzo[d]imidazol-2-yl)-2-(naphthalen-1-ylmethyl)-2,9-diazaspiro[5.5]undecan-1-one]
5 | 59 nM | 518 nM | 51 nM | 1320 nM |  |  |  | O=C1N(Cc2cccc(-c3ccccc3)c2)CCCC12CCN(c1cnc3ccccc3n1)CC2 [Example 22, 2-(biphenyl-3-ylmethyl)-9-(quinoxalin-2-yl)-2,9-diazaspiro[5.5]undecan-1-one]
6 | 36 nM | 77 nM | 16 nM | 100 nM |  |  |  | Cc1ccc(C)c(CN2C(=O)CCCC23CCN(c2cnc4ccccc4n2)CC3)c1 [Example 41, 1-(2,5-dimethylbenzyl)-9-(quinoxalin-2-yl)-1,9-diazaspiro[5.5]undecan-2-one]
7 | 34 nM | 482 nM | 30 nM | 360 nM |  |  |  | O=C1N(Cc2cccc3ccccc23)CCCC12CCN(c1cnc3ccccc3n1)CC2 [Example 2, 2-(naphthalen-1-ylmethyl)-9-(quinoxalin-2-yl)-2,9-diazaspiro[5.5]undecan-1-one]
8 | 439 nM |  | 1070 nM | 3360 nM | 0% |  |  | O=C1N(Cc2ccccc2)CCCC12CCN(c1nc3ccccc3[nH]1)CC2 [Example 10, 9-(1H-benzo[d]imidazol-2-yl)-2-benzyl-2,9-diazaspiro[5.5]undecan-1-one]
9 | 5240 nM |  |  | > 10000 nM |  |  |  | O=C1N(Cc2ccc(C(F)(F)F)cc2)CCCC12CCN(c1cnc3ccccc3n1)CC2 [Example 24, 9-(quinoxalin-2-yl)-2-(4-(trifluoromethyl)benzyl)-2,9-diazaspiro[5.5]undecan-1-one]
10 | 211 nM | 1760 nM | 213 nM | 3280 nM |  |  |  | O=C1N(Cc2cccc3cccnc23)CCCC12CCN(c1cnc3ccccc3n1)CC2 [Example 21, 2-(quinolin-8-ylmethyl)-9-(quinoxalin-2-yl)-2,9-diazaspiro[5.5]undecan-1-one]
11 | 7 nM | 13 nM | 1 nM | 17 nM |  |  |  | O=C1CCCC2(CCN(c3cnc4ccccc4n3)CC2)N1Cc1cccc2[nH]ccc12 [Example 38, 1-((1H-indol-4-yl)methyl)-9-(Quinoxalin-2-yl)-1,9-diazaspiro[5.5]undecan-2-one]
12 | 12 nM | 20 nM | 3 nM | 36 nM |  |  |  | O=C1CCCC2(CCN(c3nc4ccccc4o3)CC2)N1Cc1cccc2[nH]ccc12 [Example 42, 1-((1H-indol-4-yl)methyl)-9-(benzo[d]oxazol-2-yl)-1,9-diazaspiro[5.5]undecan-2-one]
13 |  | 1560 nM | 69 nM |  |  | 84 nM | 939 nM | O=C1N(Cc2c[nH]c3ccccc23)CCCC12CCN(c1nc3ccccc3[nH]1)CC2 [Example 152, 2-((1H-indol-3-yl)methyl)-9-(1H-benzo[d]imidazol-2-yl)-2,9-diazaspiro[5.5]undecan-1-one]
14 | 3210 nM |  |  | 5250 nM |  |  |  | O=C1N(Cc2ccc3c(c2)OCCO3)CCCC12CCN(c1cnc3ccccc3n1)CC2 [Example 25, 2-((2,3-dihydrobenzo[b][1,4]dioxin-6-yl)methyl)-9-(quinoxalin-2-yl)-2,9-diazaspiro[5.5]undecan-1-one]
15 |  | 236 nM | 47 nM |  |  | 196 nM | 205 nM | O=C1CCCC2(CCN(c3cnc4ccccc4n3)CC2)N1Cc1c[nH]c2ccccc12 [Example 43, 1-((1H-indol-3-yl)methyl)-9-(quinoxalin-2-yl)-1,9-diazaspiro[5.5]undecan-2-one]
16 |  | 2290 nM | 137 nM |  |  | 324 nM | 4990 nM | Cc1ccc(-n2nccn2)c(CN2CCCC3(CCN(c4cnc5ccccc5n4)CC3)C2=O)c1 [Example 125, 2-(5-methyl-2-(2H-1,2,3-triazol-2-yl)benzyl)-9-(quinoxalin-2-yl)-2,9-diazaspiro[5.5]undecan-1-one]
17 |  | 966 nM | 70 nM |  |  | 123 nM | 926 nM | O=C1N(Cc2c[nH]c3ccccc23)CCCC12CCN(c1ncc3ccccc3n1)CC2 [Example 169, 2-((1H-indol-3-yl)methyl)-9-(quinazolin-2-yl)-2,9-diazaspiro[5.5]undecan-1-one]
18 |  |  | 81 nM |  | 33% | 624 nM | 5090 nM | O=C1N(Cc2cccc3c2OCCO3)CCCC12CCN(c1nccc3occc13)CC2 [Example 82, 2-((2,3-dihydrobenzo[b][1,4]dioxin-5-yl)methyl)-9-(furo[3,2-c]pyridin-4-yl)-2,9-diazaspiro[5.5]undecan-1-one]
19 |  | 391 nM | 49 nM |  |  | 191 nM | 728 nM | O=C1N(Cc2cccc(-n3cccn3)c2)CCCC12CCN(c1cnc3ccccc3n1)CC2 [Example 60, 2-(3-(1H-pyrazol-1-yl)benzyl)-9-(quinoxalin-2-yl)-2,9-diazaspiro[5.5]undecan-1-one]
20 |  | 1290 nM | 85 nM |  |  | 559 nM | 3820 nM | COc1cccc(-n2cncc2CN2CCCC3(CCN(c4cnc5ccccc5n4)CC3)C2=O)c1 [Example 111, 2-((1-(3-methoxyphenyl)-1H-imidazol-5-yl)methyl)-9-(quinoxalin-2-yl)-2,9-diazaspiro[5.5]undecan-1-one]
21 |  | 1360 nM | 82 nM |  |  | 630 nM | 3500 nM | O=C1N(Cc2cccc3nsnc23)CCCC12CCN(c1cnc3ccccc3n1)CC2 [Example 113, 2-(benzo[c][1,2,5]thiadiazol-4-ylmethyl)-9-(quinoxalin-2-yl)-2,9-diazaspiro[5.5]undecan-1-one]
22 |  | 1150 nM | 98 nM |  |  | 1460 nM | 2330 nM | O=C1N(Cc2cccc3nonc23)CCCC12CCN(c1cnc3ccccc3n1)CC2 [Example 77, 2-(benzo[c][1,2,5]oxadiazol-4-ylmethyl)-9-(quinoxalin-2-yl)-2,9-diazaspiro[5.5]undecan-1-one]
23 |  | 981 nM | 19 nM |  |  | 268 nM | 3450 nM | O=C1N(Cc2ccccc2-c2ncco2)CCCC12CCN(c1cnc3ccccc3n1)CC2 [Example 149, 2-(2-(oxazol-2-yl)benzyl)-9-(quinoxalin-2-yl)-2,9-diazaspiro[5.5]undecan-1-one]
24 | 9870 nM |  |  | > 10000 nM |  |  |  | O=C1N(Cc2ccc3ccccc3c2)CCCC12CCN(c1cnc3ccccc3n1)CC2 [Example 7, 2-(naphthalen-2-ylmethyl)-9-(quinoxalin-2-yl)-2,9-diazaspiro[5.5]undecan-1-one]
25 |  | 1100 nM | 247 nM |  |  | 473 nM | 1290 nM | O=C1N(Cc2cccc(-n3ccnn3)c2)CCCC12CCN(c1cnc3ccccc3n1)CC2 [Example 46, 2-(3-(1H-1,2,3-triazol-1-yl)benzyl)-9-(quinoxalin-2-yl)-2,9-diazaspiro[5.5]undecan-1-one]
